Experiments:
[1] = test system: X1 (+1 to −2867 of CYP1A1) segment of the CYP1A promoter; experiment: Luciferase reporter assay pGL4.10-X1 in HepG2 cells; type: cell-based, human; conditions: baicalin 1, 10 or 50 μM, BNF 50 μM, normalized to renilla luciferase
Text: (§1) Two pGL4.10 luciferase plasmids containing X1 (+1 to −2867 of CYP1A1) and X2 (−21,148 to −24,409 of CYP1A1; Figure 6A) segments were transfected into HepG2 cells to investigate the effects of baicalin.
(§2) Figure 6 Effects of baicalin on the AhR-mediated activation of different segments of the CYP1A promoter in HepG2 cells. (A) Location of two insert segments, X1 and X2; and (B) Effects of baicalin and BNF on the luciferase activity of pGL4.10-X1; (C) Effects of baicalin and BNF on the luciferase activity of pGL4.10-X2. Luciferase activity was determined by firefly luciferase assay with data normalized to renilla luciferase activity. The results are expressed as the activity in drug treatment groups relative to that of the vehicle control. Each value is expressed as the mean ± SD. * p < 0.05, ** p < 0.01, *** p < 0.001 versus the plasmid only group. […]
(§3) HepG2 cells were seeded at a density of 1.0 × 10^5 cells/mL in 6-well plates to achieve ~50% confluence the next day and were then transfected with pGL4.10-X1/2 plasmids using Lipofectamine 2000 (Invitrogen). […] Thereafter, cells were collected and further assayed for firefly luciferase activity, which was normalized to the activity of renilla luciferase, using the Dual-Luciferase Reporter Assay System (Promega, Madison, WI, USA) and a Biotek Synergy 4 Microplate reader (Biotek, Winooski, VT, USA). […]

[2] = test system: X2 (−21,148 to −24,409 of CYP1A1) segment of the CYP1A promoter; experiment: Luciferase reporter assay pGL4.10-X2 in HepG2 cells; type: cell-based, human; conditions: baicalin 1, 10 or 50 μM, BNF 50 μM, normalized to renilla luciferase
Text: as §1, §2, §3

CYP1A2 [3] = conditions: mice
CYP1A1 [4] = experiment: CYP1A1 mRNA and protein expression in Fa2N-4 cells (real-time PCR, Western blot); type: cell-based, human; conditions: 24 h
Procedure: (§4) The immortalized hepatocyte cell line Fa2N-4 (Xenotech, Kansas City, KS, USA) was maintained in BEGM Bullet kit medium with 10% heat inactivated fetal bovine serum (FBS) and 1% antibiotic-antimycotic solution (Invitrogen, Carlsbad, CA, USA) at 37 °C in a humidified atmosphere of 95% air and 5% CO2. Fa2N-4 cells were plated in 6-well plates to achieve ~80% confluence next day. Cells were collected at 24 h after treatment with vehicle or baicalin (0–100 μM) in the presence or absence of 3ʹ,4ʹ-DMF (2 μM).

CYP1A2 [5] = experiment: Screening of herbal compounds for CYP1A2 induction in Fa2N-4 cells (mRNA, real-time PCR); type: cell-based, human; conditions: 10 μM, compared among seven herbal compounds
Procedure: To screen CYP1A2 inducers, Fa2N-4 cells, a non-tumorigenic immortalized human hepatic cell line, were treated with seven different herbal compounds.
Figure 1 Screening of herbal compounds for their activities in inducing CYP1A2 in Fa2N-4 cells. Cells were pre-treated with candidate compounds at 10 μM. CYP1A2 mRNA was quantified by real-time PCR. con: control (negative control); 1: omeprazole (positive control); 2: kaempferide; 3: catalpol; 4: isorhamnetin; 5: ferulic acid; 6: ligustrazine; 7: astragaloside; 8: baicalin. *** p < 0.001 versus the negative control.
as §4

AAI-induced renal damage = experiment: AAI nephrotoxicity in mice (serum BUN, CRE, kidney H&E histopathology); type: in vivo, C57BL/6 mice
Text: Mice were pretreated with baicalin for three days.
Figure 2 Effects of baicalin on aristolochic acid I (AAI) nephrotoxicity. Blood samples were collected to obtain serum for the measurement of blood urea nitrogen (BUN) (A) and creatinine (CRE) (B); (C) Kidneys were collected to perform hematoxylin and eosin (H&E) staining. Arrowheads, tubular dilation; stars, tubular necrosis and granular casts. Scale bar, 100 μm.
Male C57BL/6 mice (6–7 weeks old, 20–22 g) were obtained from Shanghai Laboratory Animal Center. All animal experiments were approved by the Shanghai Animal Care and Use Committee (Certificate No. SCXK [Shanghai] 2002-0010). […] Each group received different treatments as defined in Figure 7. Blood and liver tissues were collected and stored at −80 °C until use. Serum blood urea nitrogen (BUN) and creatinine (CRE) were measured by an automatic HITACHI Clinical Analyzer Model 7080 (Hitachi, Tokyo, Japan).
Kidneys were collected at the indicated time points and fixed in 10% formalin solution before being embedded in paraffin for sectioning into 5-μm-thick sections. Sections were stained with hematoxylin and eosin (H&E) using standard pathology procedures and evaluated by a pathologist as described previously.

CYP1A1 [6] = experiment: Hepatic CYP1A1 mRNA and protein expression in mice; type: in vivo, mouse; conditions: baicalin 80 mg/kg daily for 3 days
[7] = Levels of AAI and AAIa in mouse liver and kidney (HPLC); type: in vivo, C57BL/6 mice; conditions: baicalin pretreatment; 30 min after AAI 10 mg/kg i.p.; versus AAI group
Procedure: (§5) Figure 3 Levels of AAI and its major metabolite AAIa in the plasma, liver, and kidney. Blood samples were collected from mice at the indicated time points after AAI injection. Plasma levels of AAI (A) and AAIa (B) were measured by high-performance liquid chromatography (HPLC); Tissue samples from mice were collected at 30 min after AAI injection to determine the levels of AAI (C) and AAIa (D).
To examine whether the change in pharmacokinetics of AAI upon baicalin pretreatment was due to changes in the tissue distribution of AAI, the levels of AAI and AAIa in the livers and kidneys were measured by HPLC.
(§6) Blood samples (40 μL each) were collected in heparin-coated capillaries and mixed with 50 μL saline. The samples were spun at 3000× g for 10 min at 4 °C. Tissue samples were homogenized in saline and spun at 14,000× g for 10 min, and the supernatants were then mixed with 100 μg/mL (final concentration) indomethacin (internal standard, IS) and 2 volumes of methanol and spun again at 14,000× g for 5 min to remove precipitated proteins. Aliquots of the final supernatants were analyzed and quantified for the levels of AAI and its metabolite AAIa by high-performance liquid chromatography (HPLC), as described below.
The quantification of AAI and its metabolite AAIa was carried out with a Waters 9625 HPLC system (Sunnyvale, CA, USA). […]

[8] = Pharmacokinetics of AAI and AAIa in mouse plasma (HPLC); type: in vivo, C57BL/6 mice; conditions: for AUC / Cmax / Tmax / t1/2: AAI in mouse plasma
Text: AAIa is the major metabolite of AAI oxidative metabolism by CYP1A. We studied the pharmacokinetics of AAI and its metabolites in vivo. […] Simultaneously, the level of AAIa, the major metabolite of AAI, was higher in the plasma of the baicalin-pretreated group than that in the AAI group (Figure 3B).
as §5, §6
The quantification of AAI and its metabolite AAIa was carried out with a Waters 9625 HPLC system (Sunnyvale, CA, USA). For AAI, the linear ranges of the calibration curves were 0–100 μg/mL in the plasma, liver, and kidney, the regression equations were y = 32.186x + 1.1609 (r^2 = 0.9992), y = 38.261x − 1.2753 (r^2 = 0.9688), and y = 80.334x + 1.7436 (r^2 = 0.9987), respectively, where y is the peak area and x is the concentration of the analyte. The identity of AAIa was confirmed with synthesized standards provided by Minghua Xu (Shanghai Institute of Materia Medica, Shanghai, China).

CYP1A2 [9] = type: cell-based, human; conditions: Fa2N-4 cells, DMF 2 μM with baicalin, 24 h
Procedure: as §4

[10] = baicalin 80 or 160 mg/kg daily for 3 days, then AAI 10 mg/kg i.p. on day 4, versus AAI only
[11] = baicalin pretreatment, then AAI 10 mg/kg i.p., versus AAI group
[12] = AAI 10 mg/kg i.p. after baicalin 80 mg/kg daily for 3 days
[13] = AAI 10 mg/kg i.p. after baicalin 160 mg/kg daily for 3 days

Compound: O=c1cc(-c2ccccc2)oc2ccc3ccccc3c12 [BNF, β-Naphthoflavone, reference compound]
- luciferase activity of pGL4.10-X1 relative to vehicle control [1]: increased the luciferase activity
- luciferase activity of pGL4.10-X2 relative to vehicle control [2]: increased the luciferase activity

Compound: Oc1ccc(/C=C/c2cc(O)cc(O)c2)cc1 [RES, resveratrol, reference compound]
- effect on induction of hepatic CYP1A2 by baicalin (CYP1A2 [3]; RES 50 mg/kg with baicalin 80 mg/kg daily for 3 days): pronouncedly attenuated

Compound: O=C(O)[C@H]1O[C@@H](Oc2cc3oc(-c4ccccc4)cc(=O)c3c(O)c2O)[C@H](O)[C@@H](O)[C@@H]1O [baicalin]
- CYP1A2 expression in the liver at mRNA and protein level (CYP1A2 [3]; baicalin 80 mg/kg daily for 3 days): pronouncedly increased
- CYP1A1 expression at mRNA and protein level (CYP1A1 [4]; 100 μM): increased
- CYP1A1 expression (CYP1A1 [4]; 10 or 50 μM): relatively mild effect
- CYP1A2 gene expression at the mRNA level (induction) (CYP1A2 [5]): most potent compound in inducing CYP1A2 gene expression
- blood urea nitrogen (BUN) induced by AAI (AAI-induced renal damage; [10]): significantly reduced
- creatinine (CRE) induced by AAI (AAI-induced renal damage; [10]): significantly reduced
- kidney lesions (H&E histopathology) (AAI-induced renal damage; baicalin pretreatment for 3 days, then AAI 10 mg/kg i.p., versus AAI group): fewer lesions
- CYP1A1 expression in the liver at mRNA and protein level (CYP1A1 [6]): pronouncedly increased
- luciferase activity of pGL4.10-X1 relative to vehicle control [1]: increased the luciferase activity
- luciferase activity of pGL4.10-X2 relative to vehicle control [2]: increased the luciferase activity
- effect of pretreatment on the level of AAI in livers and kidneys [7]: reduced levels
- effect of pretreatment on the level of AAIa in livers and kidneys [7]: reduced levels
- effect of pretreatment on the level of AAI in mice (plasma, AUC) [8, 11]: markedly decreased
- effect of pretreatment on the level of AAIa in the plasma [8, 11]: higher

Compound: COc1cccc2c1cc([N+](=O)[O-])c1c(C(=O)O)cc3c(c12)OCO3 [AAI, aristolochic acid I]
- kidney lesions (H&E histopathology) (AAI-induced renal damage; AAI 10 mg/kg i.p., seven days after AAI administration): extensive tubular necrosis, and tubular dilation
- AUC [8, 12]: 759.39 ± 23.26 ** min·μg/mL
- Cmax [8, 12]: 4430 ± 240 ng/mL
- Tmax [8, 12]: 10.00 ± 0 min
- t1/2 [8, 12]: 77.96 ± 6.84 min
- AUC [8, 13]: 710.07 ± 33.95 *** min·μg/mL
- Cmax [8, 13]: 3890 ± 430 ng/mL
- Tmax [8, 13]: 9 ± 2.24 min
- t1/2 [8, 13]: 80.83 ± 3.02 min
- AUC ([8]; AAI 10 mg/kg i.p., no baicalin): 844.96 ± 40.12 µg·min/mL
- Cmax ([8]; AAI 10 mg/kg i.p., no baicalin): 4990 ± 410 ng/mL
- Tmax ([8]; AAI 10 mg/kg i.p., no baicalin): 10.00 ± 0 min
- t1/2 ([8]; AAI 10 mg/kg i.p., no baicalin): 78.68 ± 12.88 min

Compound: COc1ccc(-c2cc(=O)c3ccccc3o2)cc1OC [DMF, 3ʹ,4ʹ-dimethoxyflavone, reference compound]
- effect on baicalin-induced CYP1A1 expression (CYP1A1 [4]; DMF 2 μM with baicalin): abolished
- effect on baicalin-induced CYP1A2 expression (CYP1A2 [9]): abolished

— PMC4519959, “Baicalin Protects Mice from Aristolochic Acid I-Induced Kidney Injury by Induction of CYP1A through the Aromatic Hydrocarbon Receptor” (International Journal of Molecular Sciences, 2015)
